Here are results for twelve molecules from patent US7410998B2, “Inhibitors of NADH:ubiquinone oxidoreductase” (The Scripps Research Institute, priority 2000, dated 2008).

Molecules are shown by their SMILES.

NADH:ubiquinone oxidoreductase (Complex I), sequence (P03887 whole entry): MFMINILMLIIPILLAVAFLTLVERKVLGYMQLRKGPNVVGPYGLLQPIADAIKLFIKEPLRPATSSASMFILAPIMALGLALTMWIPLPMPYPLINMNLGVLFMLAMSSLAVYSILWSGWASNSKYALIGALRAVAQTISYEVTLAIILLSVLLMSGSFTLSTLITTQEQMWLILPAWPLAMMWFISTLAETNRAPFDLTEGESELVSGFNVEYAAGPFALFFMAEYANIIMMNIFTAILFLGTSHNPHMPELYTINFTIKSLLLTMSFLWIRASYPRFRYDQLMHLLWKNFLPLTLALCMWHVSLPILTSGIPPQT
NADH:ubiquinone oxidoreductase (Complex I), sequence (P42026 38-216): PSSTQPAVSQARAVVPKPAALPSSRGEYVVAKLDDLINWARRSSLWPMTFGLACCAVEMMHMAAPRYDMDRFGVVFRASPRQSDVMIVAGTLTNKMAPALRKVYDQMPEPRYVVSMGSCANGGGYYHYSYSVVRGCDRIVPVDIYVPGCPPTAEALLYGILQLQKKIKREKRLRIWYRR
NADH:ubiquinone oxidoreductase (Complex I), sequence (P17694 34-463): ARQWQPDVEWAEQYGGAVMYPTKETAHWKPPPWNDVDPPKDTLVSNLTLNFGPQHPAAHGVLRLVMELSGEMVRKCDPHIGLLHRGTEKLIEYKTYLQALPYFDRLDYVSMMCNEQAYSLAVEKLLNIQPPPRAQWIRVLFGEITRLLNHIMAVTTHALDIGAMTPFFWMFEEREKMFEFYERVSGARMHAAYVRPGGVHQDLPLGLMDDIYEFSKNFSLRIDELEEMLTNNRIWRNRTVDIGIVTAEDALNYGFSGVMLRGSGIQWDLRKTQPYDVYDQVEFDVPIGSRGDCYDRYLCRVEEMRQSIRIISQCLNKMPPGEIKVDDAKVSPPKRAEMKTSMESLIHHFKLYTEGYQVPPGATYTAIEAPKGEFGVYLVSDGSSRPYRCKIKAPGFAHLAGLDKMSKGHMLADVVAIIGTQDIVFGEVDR

One test has as its target NADH:ubiquinone oxidoreductase (Complex I) (Bos taurus, UniProt P03887+P17694+P42026). In words: inhibitory potency for NADH:ubiquinone oxidoreductase activity in vitro using bovine heart electron transport particles. The format is biochemical. As to conditions: bovine heart electron transport particles. As for the experimental part: This primary library was screened for inhibitory potency against NADH:ubiquinone oxidoreductase activity as described below. […] As described below, a series of focused libraries were then synthesized using a combination of solid and solution phase chemistry in an attempt to evaluate particular structural sub-regions (denoted I-IV in FIG. 9) of the lead structure, thus allowing structure activity relationships to be developed.
SAR optimization was carried out on each of the four regions (I-IV) of interest guided by the inhibitory potency for NADH:ubiquinone oxidoreductase activity in vitro using bovine heart electron transport particles (see Singer (Singer, T. P. (1974). In Methods of Biochemical Analysis (Glick, D. ed., Wiley New York), 22, pp. 123-175) for details).
FIG. 15 is a graphical summary of structure activity trends observed for benzopyran-based inhibitors of NADH:ubiquinone oxidoreductase. SAR optimization was carried out on each of the four regions (I-IV) of interest guided by the inhibitory potency for NADH:ubiquinone oxidoreductase activity in vitro using bovine heart electron transport particles (see Singer (Singer, T.P. (1974). In Methods of Biochemical Analysis (Glick, D. ed., Wiley New York), 22, pp. 123-175) for details).
Consider `COc1cc(COC(=O)c2ccc3c(c2)C=CC(C)(C)O3)cc(OC)c1OC` [Compound 55], for which the IC50 turned out to be 55 nM.

Consider `COc1cc(CC(=O)c2ccc3c(c2)CCC(C)(C)O3)cc(OC)c1OC` [Compound 165], for which the IC50 was determined as 24 nM.

`COc1cc(CC(=O)c2ccc3c(c2)C=CC(C)(C)O3)cc(OC)c1OC` [Compound 158]: the IC50 is 39 nM.

On to `COc1cc(CC(=C(Cl)Cl)c2ccc3c(c2)CCC(C)(C)O3)cc(OC)c1OC` [Compound 168], for which the IC50 worked out at 2700 nM.

As to `C=C(Cc1cc(OC)c(OC)c(OC)c1)c1ccc2c(c1)CCC(C)(C)O2` [Compound 167], the IC50 is 18 nM.

Regarding `C=C(Cc1cc(OC)c(OC)c(OC)c1)c1ccc2c(c1)C=CC(C)(C)O2` [Compound 163], the IC50 was 19 nM.

`COc1cc(COC(=O)c2ccc3c(c2)CCC(C)(C)O3)cc(OC)c1OC` [Compound 140]: the IC50 was determined as 53 nM.

As for `COc1ccc(COC(=O)c2ccc3c(c2)C=CC(C)(C)O3)cc1OC` [Compound 42], the IC50 was 220 nM.

For `COc1cc(CSc2ccc3c(c2)C=CC(C)(C)O3)cc(OC)c1OC` [Compound 178], the IC50 came to 43 nM.

For the molecule `COc1cc(CC(=C(F)F)c2ccc3c(c2)CCC(C)(C)O3)cc(OC)c1OC` [Compound 169], the IC50 is 48 nM.

Still in this test, the particulars now being: relative to parent/lead compound.
Regarding `COc1cc(CC(=O)c2ccc3c(c2)CCC(C)(C)O3)cc(OC)c1OC` [Compound 165], the “inhibitory activity” value is reported as “almost twice as active as the parent olefin”.

For a further test, the system named is Complex I. In words: Complex I activity in in vitro assays (literature, Fang/Casida). The format is biochemical. As to conditions: ratio of IC50 values. From the text: Novel lead compounds were identified through the screening of natural product-like combinatorial libraries. Separation of the constituents of this resin provided the major components rotenone (1, FIG. 2) and deguelin (7, FIG. 3) along with minor constituents, including dehydrodeguelin (8), oxadehydrodeguelin (9), lonchocarpusone (10), 4-hydroxylonchocarpene (11), 4-hydroxy-3-methoxylonchocarpene (12), stilbenes 13-15, and isoflavones 16-18 (FIG. 3) among others. […] Despite the diversity in these bridging units, all of the compounds (7-18) inhibited Complex I activity in in vitro assays (Fang, N.; Casida, J. E. J. Nat. Prod. 1999, 62, 205-210; Fang, N.; et al. Chem. Res. Toxicol. 1997, 10, 853-858). […] Given this effect, it was envisioned that screening a benzopyran-based combinatorial library wherein this “bridge” unit was varied (i.e. structure 19, FIG. 3) might lead to the identification of interesting structure activity relationships (SAR), and potentially to new lead compounds in this series.
As to `COc1cc2c(cc1OC)[C@@H]1C(=O)c3ccc4c(c3O[C@@H]1CO2)C=CC(C)(C)O4` [deguelin], the “fold more active than lonchocarpusone” value was around 500 fold.

Another test deals with Complex I.
Test: not given
As to conditions: natural products from Cubé resin; cited from earlier work.
Consider `COc1cc(OC)c(C2COc3c(ccc4c3C=CC(C)(C)O4)C2=O)cc1OC` (centres unmarked) [lonchocarpusone], for which the IC50 is 3300 nM.

For `COc1cc2c(cc1OC)[C@@H]1C(=O)c3ccc4c(c3O[C@@H]1CO2)C=CC(C)(C)O4` [deguelin], the IC50 is 6.9 nM.
